Holding throughout (assay): growth of human tumour cells (NCI), 48 h
For test [1], the system named is HCT-15 colon.
Test [2] deals with HOP-62 NSCLC.
The subject of test [3] is K-562 leukemia.
For test [4], the system named is M14 melanoma.
In test [5] the test system is SF-539 CNS.
Test [6] concerns RXF 393 renal.
In test [7] the test system is MDA-MB-231 breast.
The subject of test [8] is NCI/ADR-RES ovarian.
Test [9] concerns PC-3 prostate.
For test [10], the system named is SR leukemia.

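96-well plates; 48 h exposure; 5 concentrations. Endpoints by linear interpolation between flanking doses. Not reached: highest tested concentration assigned. GI50 is the concentration that inhibits growth by half. TGI is the concentration that stops growth completely.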 Bounds are passed on as bounds.

Take `CC(O)C(NC(=O)c1ccccc1)C(=O)N(Cc1ccccc1)Cc1ccccc1` (stereo not drawn): the TGI in test [1], in test [2], in test [3], in test [4] and in test [5] was more than 100 µM throughout.
Consider `O=C1CCCC(O)=C1SC1=C(O)CCCC1=O`, for which the TGI in test [1], in [3], in test [4], in [6] and in [5] was more than 100 µM each time.
On to `COc1cc(C(=O)O/N=C(\N)Cc2cccc3ccccc23)cc(OC)c1OC`, for which the GI50 in test [1] is 6.41 µM; in test [2] it was 4.42 µM; in test [7], 4.12 µM; in test [8], 7.02 µM; in test [9], 6.02 µM; in test [6] it was 10.7 µM. Also, the GI50 in [5] was 2.97 µM. In addition, the TGI in [1] is 21.4 µM; in test [2], 18.7 µM; in test [7] it was 18 µM; in test [8], 59.2 µM; in [9], 20.6 µM; in [6], 23.9 µM. Also, the TGI in [5] came to 10.4 µM.
Turning to `COc1ccccc1NC(=O)C1=C(C)NC(C)=C(C(=O)Nc2ccccc2OC)C1c1cccc2ccccc12`, the TGI in test [1], in test [3], in [4], in test [6] and in test [5] was more than 100 µM throughout.
As to `N#Cc1cc([N+](=O)[O-])ccc1NC(=O)C(=O)C(C(=O)c1ccc2ccccc2c1)C1OCc2ccccc21` (stereo not drawn), the TGI was 37.7 µM in test [1]; 15.6 µM in [2]; 65.2 µM in test [3]; 30.1 µM in test [4]; 12.4 µM in [6]; 5.83 µM in test [5]. Also, the TGI in test [10] was 16.9 µM.
In the case of `Fc1cccc(Cl)c1Cn1c(-c2c(F)cccc2Cl)nc2ccccc21`, the GI50 in test [1] was 16.4 µM; in [2], 23.2 µM; in [3] it was 10100 nM; in test [4] it was 19.4 µM; in test [7], 13.2 µM; in test [8], 18.7 µM. Also, the GI50 was 14.7 µM in [9], 19.7 µM in [6] and 23.1 µM in test [5]. Besides, the TGI is 42.9 µM in test [1]; 50.6 µM in test [2]; more than 100 µM in [3]; 53.9 µM in test [4]; 29.3 µM in test [7]; 54.4 µM in test [8]. Further, the values for the TGI in test [9], in test [6] and in [5] were 55.3 µM, 43.6 µM and 46.2 µM, respectively.
Take `CCCC(=O)c1ccc(=O)n(C)c1`: the TGI in [1], in test [2], in test [3], in test [4], in [6] and in test [5] was more than 100 µM throughout. In [10], this molecule gave a TGI of more than 100 µM.
Turning to `Cc1cc(NCc2cc(Nc3ccnc4cc(Cl)ccc34)ccc2F)nc(N2CCSCC2)n1`, the GI50 is 1.54 µM in test [1]; 1.89 µM in test [2]; 906 nM in test [3]; 1.64 µM in test [7]; 1.55 µM in test [8]; 1.5 µM in test [9]. Further, the GI50 in [6] was 1.52 µM; in test [5], 1.79 µM. Besides, the TGI in [1] was 3.54 µM; in test [2], 5.64 µM; in [3], 3.35 µM; in [7] it was 3.63 µM; in test [8], 4.02 µM; in test [9], 4.35 µM. In addition, the TGI in [6] and in [5] was 3.35 µM each time.
With `CC(=O)OCCOCNC(=S)N/N=C(\C)c1cccs1`, the TGI in test [1], in [2], in test [3], in [4], in test [6] and in [5] was more than 100 µM throughout. The same molecule yielded a TGI in [10] of more than 100 µM.
Regarding `CCC(C)c1cccc(C)c1NC(=O)C(=O)Cc1nc2ccccc2s1` (stereo not drawn), the TGI in test [1], in [2], in [3], in test [4], in test [6] and in [5] was more than 100 µM in each case.
In the case of `CN(C)c1ccc2cc3ccc(N(C)C)cc3nc2c1`, the TGI turned out to be 2.94 µM in [1]; 7.18 µM in test [2]; 21.6 µM in test [3]; 8.15 µM in test [4]; 2.89 µM in [7]; 5.06 µM in test [8]. The TGI was 9.48 µM in test [9], 22.7 µM in test [6] and 6.53 µM in [5].
On to `CCOc1ccc(NCC2CC/C(=C\c3ccc(Cl)cc3)C2=O)cc1` (stereo not drawn), for which the TGI in test [1] was 23.7 µM; in test [2], more than 100 µM; in [3], 34.9 µM; in test [4], 50.6 µM; in [6], more than 64.6 µM; in test [5], more than 57 µM. This molecule had a TGI in test [10] of more than 50.4 µM.
Turning to `ClC1c2ccccc2C2(c3ccccc3)OOC1(c1ccccc1)O2` (stereo not drawn), the TGI is 3.24 µM in test [1]; 22.9 µM in test [2]; 2.76 µM in [4]; 2.83 µM in [6]; 5.01 µM in test [5]; 3.4 µM in [10].
For `COC1C(CO)OC(n2c3c(Cl)cccc3c3c4c(c5c6cccc(Cl)c6[nH]c5c32)C(=O)NC4=O)C(O)C1O` (stereo not drawn), the TGI in test [1] is more than 100 µM; in test [2] it was 6.63 µM; in test [3], more than 100 µM; in test [4], 10.7 µM; in test [7], more than 54.7 µM; in [8], more than 100 µM. Besides, the TGI is more than 100 µM in test [9], 4.95 µM in test [6] and 0.489 µM in [5].
As for `O=C(Oc1ccc2c(-c3ccccc3)c(C(=O)Nc3ccc(Cl)cc3)c(=O)oc2c1)c1ccccc1`, the TGI in test [1], in test [2], in test [3], in test [4], in test [6] and in test [5] was more than 100 µM throughout.
In the case of `NC(CCc1ncc(-c2ccccc2)s1)C(=O)O` (stereo not drawn), the TGI in test [1], in test [3], in test [4], in [6] and in test [5] was more than 100 µM throughout.
For `CC(C)CN1CC(C)C(=O)NC1=O` (stereo not drawn), the TGI in test [2], in test [3], in [6], in test [5] and in test [10] was more than 100 µM each time.
With `OCC(O)COc1c(Cl)cc(Cl)cc1Cl` (stereo not drawn), the TGI in [1] is more than 100 µM; in test [2], more than 100 µM; in [3], more than 66.1 µM; in test [4] it was more than 100 µM; in test [6], more than 100 µM; in [5], more than 100 µM. The molecule also registered a TGI in [10] of more than 100 µM.
In the case of `CCOC(=O)C(=O)Nc1ccccc1OCC`, the TGI in test [2], in [3], in test [4], in test [6] and in [5] was more than 100 µM each time.
With `CN1C(=O)CCC1c1ccc2c(c1)oc(=O)n2C` (stereo not drawn), the TGI in test [1], in test [2], in test [3], in test [4], in [6] and in test [5] was more than 100 µM in each case.
In the case of `O=C(Cc1csc2nc(-c3ccc(Br)cc3)cn12)N/N=C/c1ccc(Cl)cc1Cl`, the GI50 is 25.5 µM in test [1]; 16.6 µM in test [2]; 32.9 µM in [4]; 26.2 µM in [7]; 17.2 µM in [8]; 30.2 µM in [9]. The GI50 in [6] is 28.4 µM; in test [5] it was 27.2 µM. The TGI was 73.2 µM in [1]; 35 µM in [2]; more than 100 µM in test [4]; more than 100 µM in test [7]; 52.3 µM in [8]; more than 100 µM in test [9]. The TGI in test [6] was 85.1 µM; in test [5] it was 63.8 µM.
As to `O=C(/C=C/c1ccccc1O)c1cccc2ccccc12`, the TGI in test [1] is more than 58.4 µM; in test [2] it was more than 100 µM; in test [3], more than 100 µM; in [4], more than 100 µM; in [6] it was more than 88.9 µM; in [5] it was more than 100 µM. The TGI in test [10] is more than 100 µM.
On to `Nc1c(C(=O)NC23CC4CC(CC(C4)C2)C3)[n+]([O-])c2ccccc2[n+]1[O-]`, for which the TGI in test [1], in test [2], in test [3], in test [4] and in [5] was more than 100 µM each time.
`O=C(c1nn(-c2ccc(Cl)cc2)cc1O)n1nc(C(F)(F)F)cc1-c1ccccc1`: the GI50 in test [1] was 1.13 µM; in test [2] it was 1.84 µM; in test [3], 1720 nM; in [4] it was 3.69 µM; in test [7] it was more than 26.3 µM; in [8], 2.09 µM. Further, the GI50 in test [9] is 13.9 µM; in test [6] it was 0.687 µM; in test [5] it was 2.7 µM. Moreover, the TGI was more than 100 µM in test [1]; more than 76.9 µM in [2]; more than 100 µM in test [3]; more than 52.2 µM in [4]; more than 100 µM in test [7]; more than 35.9 µM in test [8]. Further, the TGI was more than 100 µM in [9], more than 76.1 µM in [6] and more than 100 µM in test [5].
For `O=C(Oc1ccccc1Cl)c1ccccc1Nc1cccc(C(F)(F)F)c1`, the GI50 in test [1] is 29.4 µM; in [2] it was 24.6 µM; in [3] it was 2670 nM; in test [4], 13.9 µM; in test [7], 20.2 µM; in test [8], 19 µM. Also, the figures for the GI50 in test [9], in [6] and in test [5] were 26 µM, 13.9 µM and 22.1 µM, respectively. Further, the TGI is more than 100 µM in test [1]; 70.5 µM in test [2]; 8.43 µM in test [3]; 38.9 µM in test [4]; 48.3 µM in test [7]; 44.4 µM in test [8]. For the same molecule, the TGI in test [9] was more than 100 µM; in test [6] it was 43.9 µM; in test [5], 42.2 µM.
For the molecule `O=C1CCNC(=O)NC1`, the TGI in test [1], in test [2], in test [3], in test [4], in test [6] and in test [10] was more than 100 µM throughout.
For the molecule `CC(C)=CC(=O)N[C@@H]1CC2CCC3C(CC[C@@]4(C)C3CC[C@@H]4C(C)N(C)C)[C@@]2(C)C[C@@H]1O` (stereo partly drawn), the GI50 in [1] is 1.39 µM; in test [2], 4.3 µM; in [3], 849 nM; in test [4] it was 1.86 µM; in [7] it was 5.77 µM; in [8] it was 7.05 µM. In addition, the GI50 was 3.73 µM in [9], 3.12 µM in test [6] and 1.59 µM in [5]. Also, the TGI in test [1] is 5.01 µM; in test [2], 9.85 µM; in [3] it was 8.49 µM; in test [4], 3.69 µM; in test [7], 19.8 µM; in test [8], more than 72.6 µM. In addition, the TGI in test [9] amounted to 32.7 µM; in test [6], 12.2 µM; in test [5], 3.36 µM.
As to `CCOc1cc2c(=O)oc3c(OC)ccc4ccc(c1OC)c2c43`, the TGI is more than 100 µM in [1]; more than 100 µM in test [2]; more than 100 µM in test [3]; more than 100 µM in test [4]; 97.5 µM in test [7]; more than 100 µM in test [8]. In addition, the TGI in test [9], in [6] and in test [5] was more than 100 µM throughout.
For `COc1ccc(-n2cc(-c3cc(OC)c(OC)c(OC)c3)[nH]c2=S)cc1Cl`, the GI50 was more than 100 µM in test [1]; 22.1 µM in [2]; more than 100000 nM in [3]; 7.7 µM in test [7]; 27.5 µM in test [8]; 54.6 µM in [9]. In addition, the GI50 in test [6] is 17.6 µM; in test [5], 18.4 µM. Besides, the TGI in test [1] was more than 100 µM; in test [2], 52.8 µM; in test [3], more than 100 µM; in [7], 49.8 µM; in [8], more than 100 µM; in test [9], more than 100 µM. Moreover, the TGI in [6] is more than 100 µM; in [5], 48.8 µM.

The record behind these values is PubChem BioAssay (NCI).
